{
  "source": "patent US20120135917A1",
  "about": "“Anti-Gram Negative Bacteria Agent” (priority 2009, published 2012)",
  "key": {"[1]": {"system": "Pseudomonas aeruginosa (strain PAO1)", "assay": "Viable cell count of Pseudomonas aeruginosa strain PAO1 cultured with peptide and polymyxin B", "assay_type": "cell-based", "settings": "0.4 μg/mL polymyxin B", "procedure": "At this time, the culture was performed under conditions in which various concentrations of a peptide, LTLR (a peptide consisting of 4 amino acid residues, having the sequence leucine-threonine-leucine-arginine) were added. Under each condition, the number of viable cells of Pseudomonas aeruginosa was measured, and it was measured how the addition of the peptide changes the number of the viable cells compared to the number of the viable cells for no addition of the peptide. The results are shown in the graph of FIG. 4(A)."}, "[2]": {"system": "Clinical isolates (strains 24, 42, 83, 88 and 92 of P. aeruginosa), strain nalB, strain nfxC", "settings": "3 mM LTLR, polymyxin B 0.2 μg/mL", "procedure": "In Examples and the like described below, the number of viable cells of Gram-negative bacteria (Pseudomonas aeruginosa or Escherichia coli) is measured as follows. A portion of bacteria cultured at 37° C. overnight is added to a fresh MH medium and continues to be cultured at the same temperature. When the turbidity (absorbance at 600 nm) of the bacteria reaches 0.7-0.8, the bacterial solution is added an MH medium to prepare a bacterial solution diluted 1:100-200, which is used for experimental purposes. A solution in which 60-80 μL of the bacterial solution was added to a solution of a peptide and the like to a final amount of 100 μL is cultured for a certain time (3 hours) while stirring at 37° C. After culture, the bacterial solution was diluted with a PBS solution, and the diluted solution is seeded on an MH agar plate and cultured at 37° C. overnight. The following day, the number of colonies grown on the plate is counted to determine the number of viable bacterial cells.\nClinical isolates (strains 24, 42, 83, 88 and 92 of P. aeruginosa), strain nalB (a strain having acquired high multidrug resistance by highly expressing MexAB-OprM as a drug efflux pump), and strain nfxC (a strain having acquired high multidrug resistance by highly expressing MexEF-OprN as a drug efflux pump) were used in place of the strain PA01 (standard strain) of Pseudomonas aeruginosa used in Example 1 to measure the action of LTLR thereon. In this experiment, the final concentration of polymyxin B was set at 0.2 μg/mL with 3 mM LTLR added to examine changes in the survival rate thereof."}, "Escherichia coli": {"system": "Escherichia coli", "assay": "Viable cell count of Escherichia coli with peptide and polymyxin B", "assay_type": "cell-based", "settings": "ATCC25922; 3 mM LTLR; polymyxin B 0.2 μg/mL", "procedure": "Escherichia coli (ATCC25922) was used in place of Pseudomonas aeruginosa for the same measurement as in Example 2.\nLTLR whose carboxy terminal was amidated was synthesized to examine the action thereof. Under the same conditions as those in Example 1, various concentrations of the amidated LTLR were added to examine changes in the survival rate of Pseudomonas aeruginosa."}},
  "note": "Like-named read-outs stand apart in the source and are kept apart here.",
  "data": [
    {"substance": "leucine-threonine-leucine-arginine [LTLR]", "values": [
      {"measurement": "survival rate of Pseudomonas aeruginosa", "setting": "[1]; 2.5 mM peptide, 3 hours culture, vs no addition of peptide", "result": "~0", "unit": "%"},
      {"measurement": "change in survival rate of Pseudomonas aeruginosa", "setting": "[1]; various concentrations of peptide", "result": "decreased in a manner dependent on the concentration"},
      {"measurement": "Survival Rate (%)", "setting": "[2]; P. aeruginosa 24", "result": 0, "unit": "%"},
      {"measurement": "Survival Rate (%)", "setting": "[2]; P. aeruginosa 42", "result": 43, "unit": "%"},
      {"measurement": "Survival Rate (%)", "setting": "[2]; P. aeruginosa 83", "result": 0, "unit": "%"},
      {"measurement": "Survival Rate (%)", "setting": "[2]; P. aeruginosa 88", "result": 25, "unit": "%"},
      {"measurement": "Survival Rate (%)", "setting": "[2]; P. aeruginosa 92", "result": 9, "unit": "%"},
      {"measurement": "Survival Rate (%)", "setting": "[2]; strain nalB (highly expressing MexAB-OprM)", "result": 0, "unit": "%"},
      {"measurement": "Survival Rate (%)", "setting": "[2]; strain nfxC (highly expressing MexEF-OprN)", "result": 1, "unit": "%"},
      {"measurement": "survival rate of Escherichia coli", "setting": "Escherichia coli", "result": "about 1%"}
    ]}
  ]
}
